Read-outs that look alike come from different tables or passages of the source.
Legend:
KRAS G12V = KRAS G12V (Homo sapiens, UniProt P01116, G12V); assay: GDP-GTP exchange assay (bodipy-GDP/GppNHp, SOS1), KRAS G12V; type: biochemical
Protocol: (§1) The inhibitor potency of the exemplified compounds was determined in a fluorescence based guanine nucleotide exchange assay, which measures the exchange of bodipy-GDP (fluorescently labeled GOP) for GppNHp (Non-hydrolyzable GTP analog) to generate the active state of KRAS in the presence of SOS1 (guanine nucleotide exchange factor). Inhibitors were serially diluted in DMSO and a volume of 0.1 μL was transferred to the wells of a black low volume 384-well plate. 5 μL/well volume of bodipy-loaded KRAS G12D diluted to 2.5 nM in assay buffer (25 mM Hepes pH 7.5, 50 mM NaCl, 10 mM MgCl2 and 0.01% Brij-35) was added to the plate and pre-incubated with inhibitor for 4 h at r.t. Appropriate controls (enzyme with no inhibitor or with a G12D inhibitor) were included on the plate. The exchange was initiated by the addition of a 5 μL/well volume containing 1 mM GppNHp and 300 nM SOS1 in assay buffer. The 10 μL/well reaction concentration of the bodipy-loaded KRAS G12D, GppNHp, and SOS1 were 2.5 nM, 500 μM, and 150 nM, respectively. The reaction plates were incubated at r.t. for 2 h, a time estimated for complete GDP-GTP exchange in the absence of inhibitor. For the KRAS G12V mutant, similar guanine nucleotide exchange assays were used with 2.5 nM as final concentration for the bodipy loaded KRAS proteins and 3 h incubation after adding GppNHp-SOS1 mixture. A cyclic peptide described to selectively bind G12D mutant (Sakamoto et al., BBRC 484.3 (2017), 605-611) or internal compounds with confirmed binding were used as positive controls in the assay plates. Fluorescence intensities were measured on a PheraStar plate reader instrument (BMG Labtech) with excitation at 485 nm and emission at 520 nm.
(§2) Either GraphPad prism or Genedata Screener SmartFit was used to analyze the data. The IC50 values were derived by fitting the data to a four parameter logistic equation producing a sigmoidal dose-response curve with a variable Hill coefficient.
(§3) The symbol “†” indicates IC50≤100 nM, “††” indicates IC50>100 nM but ≤1 μM; and “†††” indicates IC50 is >1 μM but ≤5 μM, “††††” indicates IC50 is >5 μM but ≤10 μM. “NA” indicates IC50 not available.

KRAS G12D = KRAS G12D (Homo sapiens, UniProt P01116, G12D); assay: GDP-GTP exchange assay (bodipy-GDP/GppNHp, SOS1), KRAS G12D; type: biochemical
Protocol: as §1, §2, §3

[1] = KRAS G12V mutant, value for the most potent isomer quoted for certain compounds, read-out: G12V (KRAS G12V exchange assay IC50)
[2] = bodipy-loaded KRAS G12D 2.5 nM, 4 h pre-incubation, value for the most potent isomer quoted for certain compounds, read-out: G12D (KRAS G12D exchange assay IC50)
[3] = Table H, column G12V, for compounds isolated as several atropisomers/diastereoisomers the value for the most potent isomer is quoted, read-out: KRAS G12V exchange assay IC50
[4] = Table H, column G12D, for compounds isolated as several atropisomers/diastereoisomers the value for the most potent isomer is quoted, read-out: KRAS G12D exchange assay IC50

Sequence of KRAS G12D (P01116 1-188 isoform P01116-2 G12D): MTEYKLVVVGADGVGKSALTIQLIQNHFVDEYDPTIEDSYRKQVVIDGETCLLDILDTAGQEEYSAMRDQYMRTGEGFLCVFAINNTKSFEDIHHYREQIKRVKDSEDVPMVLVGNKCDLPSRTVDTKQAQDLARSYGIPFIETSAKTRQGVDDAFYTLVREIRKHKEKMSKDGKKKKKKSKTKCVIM
Sequence of KRAS G12V (P01116 1-188 isoform P01116-2 G12V): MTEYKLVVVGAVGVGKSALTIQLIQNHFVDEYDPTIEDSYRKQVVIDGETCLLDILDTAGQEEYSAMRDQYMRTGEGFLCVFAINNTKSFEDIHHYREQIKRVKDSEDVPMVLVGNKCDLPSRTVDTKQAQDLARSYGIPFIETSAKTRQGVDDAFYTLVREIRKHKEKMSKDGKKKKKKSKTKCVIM

SMILES | IC50 (KRAS G12V; [1]) | IC50 (KRAS G12D; [2]) | IC50 (KRAS G12V; [3]) | IC50 (KRAS G12D; [4])
Cc1nc(CO[C@H]2C[C@H](c3cc4c(C)nc5c(F)c(-c6cccc(Cl)c6Cl)c(CCC#N)cc5c4n3[C@H]3[C@H]4CN[C@@H]3C4)N(C(=O)C3CC3)C2)cs1 [Example 107] | ≤ 100 nM | ≤ 100 nM | – | –
COc1cc(F)cc(O[C@H]2C[C@H](c3cc4c(C)nc5c(F)c(-c6cccc(Cl)c6Cl)c(CCC#N)cc5c4n3[C@H]3[C@H]4CN[C@@H]3C4)N(C(=O)C3CC3)C2)c1 [Example 190] | ≤ 100 nM | ≤ 100 nM | – | –
CNC(=O)c1ccc(-c2nc3c(F)c(-c4cccc(Cl)c4Cl)c(CCC#N)cc3c3c2cc([C@H]2C[C@H](OCc4c(F)cccc4F)CN2C(=O)C2CC2)n3[C@H]2[C@H]3CN[C@@H]2C3)cn1 [Example 220] | ≤ 100 nM | ≤ 100 nM | – | –
Cc1cc(-c2nc3c(F)c(-c4cccc(Cl)c4Cl)c(CCC#N)cc3c3c2cc([C@H]2C[C@H](OCc4c(F)cccc4F)CN2C(=O)C2CC2)n3[C@H]2[C@H]3CN[C@@H]2C3)cc(C)n1 [Example 208] | 5000 to 10000 nM | 5000 to 10000 nM | – | –
Cc1nc2c(F)c(-c3cccc(Cl)c3Cl)c(CCC#N)cc2c2c1cc([C@H]1C[C@H](OCc3ccccn3)CN1C(=O)C1CC1)n2[C@H]1[C@H]2CN[C@@H]1C2 [Example 94] | ≤ 100 nM | ≤ 100 nM | – | –
Cc1nc2c(F)c(-c3cccc(Cl)c3Cl)c(CCC#N)cc2c2c1cc([C@H]1C[C@H](n3cc(C(C)(C)C(F)F)nn3)CN1C(=O)C1CC1)n2[C@H]1C2CNC1C2 (stereo partly shown) [Example 225] | ≤ 100 nM | ≤ 100 nM | – | –
Cc1nc2c(F)c(-c3cccc(Cl)c3Cl)c(CCC#N)cc2c2c1cc([C@H]1C[C@H](OCc3c(F)cccc3C#N)CN1C(=O)C1CC1)n2[C@H]1[C@H]2CN[C@@H]1C2 [Example 126] | ≤ 100 nM | ≤ 100 nM | – | –
COc1cccc(O[C@H]2C[C@H](c3cc4c(C)nc5c(F)c(-c6cccc(Cl)c6Cl)c(CCC#N)cc5c4n3[C@H]3C4CNC3C4)N(C(=O)C3CC3)C2)n1 (stereo partly shown) [Example 199] | ≤ 100 nM | ≤ 100 nM | – | –
Cc1nc2c(F)c(-c3cccc(Cl)c3Cl)c(CCC#N)cc2c2c1cc([C@H]1C[C@H](O[C@@H]3CCOC3)CN1C(=O)C1CC1)n2[C@H]1[C@H]2CN[C@@H]1C2 [Example 30] | – | – | ≤ 100 nM | ≤ 100 nM
Cc1nc2c(F)c(-c3cccc(Cl)c3Cl)c(CCC#N)cc2c2c1cc([C@H]1C[C@H](OC(F)(F)c3ccccc3)CN1C(=O)C1CC1)n2[C@H]1[C@H]2CN[C@@H]1C2 [Example 79, 3-(1-((1R,4R,5S)-2-Azabicyclo[2.1.1]hexan-5-yl)-2-((2R,4S)-1-(cyclopropanecarbonyl)-4-(difluoro(phenyl)methoxy)pyrrolidin-2-yl)-7-(2,3-dichlorophenyl)-6-fluoro-4-methyl-1H-pyrrolo[3,2-c]quinolin-8-yl)propanenitrile] | – | – | ≤ 100 nM | ≤ 100 nM
CN1CC=C(c2nc3c(F)c(-c4cccc(Cl)c4Cl)c(CCC#N)cc3c3c2cc([C@H]2C[C@H](OCc4c(F)cccc4F)CN2C(=O)C2CC2)n3[C@H]2[C@H]3CN[C@@H]2C3)CC1 [Example 219] | ≤ 100 nM | ≤ 100 nM | – | –
Cc1nc2c(F)c(-c3cccc(Cl)c3Cl)c(CCC#N)cc2c2c1cc([C@H]1C[C@H](Oc3cccc(C#N)c3)[C@H](C)N1C(=O)C1CC1)n2[C@H]1[C@H]2CN[C@@H]1C2 [Example 209] | 100 to 1000 nM | ≤ 100 nM | – | –

Results, then the compound that gave them:

IC50 (KRAS G12V; [1]) | IC50 (KRAS G12D; [2]) | IC50 (KRAS G12V; [3]) | IC50 (KRAS G12D; [4]) | SMILES
≤ 100 nM | ≤ 100 nM | – | – | COCC1(c2cn([C@H]3C[C@H](c4cc5c(C)nc6c(F)c(-c7cccc(Cl)c7Cl)c(CCC#N)cc6c5n4[C@H]4[C@H]5CN[C@@H]4C5)N(C(=O)C4CC4)C3)nn2)CC1 [Example 383]
≤ 100 nM | ≤ 100 nM | – | – | Cc1nn(CC(F)F)cc1O[C@H]1C[C@H](c2cc3c(C)nc4c(F)c(-c5cccc(Cl)c5Cl)c(CCC#N)cc4c3n2[C@H]2[C@H]3CN[C@@H]2C3)N(C(=O)C2CC2)C1 [Example 408]
100 to 1000 nM | ≤ 100 nM | – | – | Cc1nc2c(F)c(-c3cccc(Cl)c3Cl)c(CCC#N)cc2c2c1cc([C@H]1C[C@H](n3nnc(-c4cccc(OC(F)(F)F)c4)n3)CN1C(=O)C1CC1)n2[C@H]1[C@H]2CN[C@@H]1C2 [Example 436]
≤ 100 nM | ≤ 100 nM | – | – | CC(O)c1nc2c(F)c(-c3cccc(Cl)c3Cl)c(CCC#N)cc2c2c1cc([C@H]1C[C@H](OCC3(C#N)CC3)CN1C(=O)C1CC1)n2[C@H]1[C@H]2CN[C@@H]1C2 (stereo partly shown) [Example 404]
≤ 100 nM | ≤ 100 nM | – | – | Cc1nc2c(F)c(-c3cccc(Cl)c3Cl)c(CCC#N)cc2c2c1cc([C@H]1C[C@H](Oc3ccnc(N4CC(C(F)F)C4)c3)CN1C(=O)C1CC1)n2[C@H]1[C@H]2CN[C@@H]1C2 [Example 370]
≤ 100 nM | ≤ 100 nM | – | – | Cc1nc2c(F)c(-c3cccc(Cl)c3Cl)c(CCC#N)cc2c2c1cc([C@H]1C[C@H](n3ccc(N)n3)CN1C(=O)C1CC1)n2[C@H]1[C@H]2CN[C@@H]1C2 [Example 319]
≤ 100 nM | ≤ 100 nM | – | – | Cc1nc2c(F)c(-c3cccc(Cl)c3Cl)c(CCC#N)cc2c2c1cc([C@H]1C[C@H](Oc3ccn(CC(F)(F)F)n3)CN1C(=O)C1CC1)n2[C@H]1[C@H]2CN[C@@H]1C2 [Example 411]
≤ 100 nM | ≤ 100 nM | – | – | COc1cc(O[C@H]2C[C@H](c3cc4c(C)nc5c(F)c(-c6cccc(Cl)c6Cl)c(CCC#N)cc5c4n3[C@H]3[C@H]4CN[C@@H]3C4)N(C(=O)C3CC3)C2)ccn1 [Example 304]
≤ 100 nM | ≤ 100 nM | – | – | Cc1nc2c(F)c(-c3cccc(Cl)c3Cl)c(CCC#N)cc2c2c1cc([C@H]1C[C@H](n3cc(Cn4ccccc4=O)nn3)CN1C(=O)C1CC1)n2[C@H]1[C@H]2CN[C@@H]1C2 [Example 324]
≤ 100 nM | ≤ 100 nM | – | – | Cc1nc2c(F)c(-c3cccc(Cl)c3Cl)c(CCC#N)cc2c2c1cc([C@H]1C[C@H](OCc3ccnc(C(F)(F)F)c3)CN1C(=O)C1CC1)n2[C@H]1[C@H]2CN[C@@H]1C2 [Example 259]
≤ 100 nM | ≤ 100 nM | – | – | COc1ncc(F)cc1O[C@H]1C[C@H](c2cc3c(C)nc4c(F)c(-c5cccc(Cl)c5Cl)c(CCC#N)cc4c3n2[C@H]2[C@H]3CN[C@@H]2C3)N(C(=O)C2CC2)C1 [Example 447]
≤ 100 nM | ≤ 100 nM | – | – | Cc1nc2c(F)c(-c3cccc(Cl)c3Cl)c(CCC#N)cc2c2c1cc([C@H]1C[C@H](OCc3ccc(C(F)(F)F)nc3)CN1C(=O)C1CC1)n2[C@H]1[C@H]2CN[C@@H]1C2 [Example 260]
≤ 100 nM | ≤ 100 nM | – | – | Cc1nc2c(F)c(-c3cccc(Cl)c3Cl)c(CCC#N)cc2c2c1cc([C@H]1C[C@H](n3cccn3)CN1C(=O)C1CC1)n2[C@H]1[C@H]2CN[C@@H]1C2 [Example 314]
≤ 100 nM | ≤ 100 nM | – | – | Cc1nc2c(F)c(-c3cccc(Cl)c3Cl)c(CCC#N)cc2c2c1cc([C@H]1C[C@H](n3ccc(CC#N)n3)CN1C(=O)C1CC1)n2[C@H]1[C@H]2CN[C@@H]1C2 [Example 316]
≤ 100 nM | ≤ 100 nM | – | – | Cc1nc2c(F)c(-c3cccc(Cl)c3Cl)c(CCC#N)cc2c2c1cc([C@H]1C[C@H](n3cc([C@]45C[C@H](CN4)C5)nn3)CN1C(=O)C1CC1)n2[C@H]1[C@H]2CN[C@@H]1C2 [Example 274]
– | ≤ 100 nM | – | – | Cc1nc2c(F)c(-c3cccc(Cl)c3Cl)c(CCC#N)cc2c2c1cc([C@H]1C[C@H](OC(=O)c3ccccc3)CN1C(=O)C1CC1)n2[C@H]1[C@H]2CN[C@@H]1C2 [Example 270]

From US20240390340A1 (INCYTE CORPORATION, priority 2023, published 2024)
